Assay results reported in US20250241840A1, “ORALLY ADMINISTRATED COSMETIC COMPOSITIONS TO TREAT SKIN DRYNESS” (IIAA Limited, priority 2022, published 2025).

What was measured:
[1] = tested on: skin of the cheek; assay: Example 1: 28-day oral hyaluronic acid study, hydration, TEWL and wrinkle depth of the skin of the cheek; format: in vivo, human; details: 200 mg HA orally once daily, 28 days
Method: A cachet containing 200 mg hyaluronic acid (HA) was administered orally, once daily, to 30 subjects for 28 days. The hyaluronic acid administered in this manner consisted of hyaluronic acid molecules having molecular weights in a range of from 50 to 2200 kDa. The hydration, TEWL and wrinkle depth of the skin of the cheek of each subject was measured on the first day of the 28-day study and on the last day of the 28-day study. A Courage+Khazaka Dual 580 Multi Probe Adapter System fitted with a Corneometer™ CM 825 probe (obtainable from Courage & Khazaka Electronic GmbH of Mathias-Brüggen-Straße 91, 50829 Köln, Germany) was used to measure the surface hydration of the subjects' skin. A Courage+Khazaka Dual 580 Multi Probe Adapter System fitted with a Tewameter™ 300 probe was used to measure the TEWL of the subjects' skin. A PRIMOS 3D™ optical skin measurement device was used to measure the depth and width of wrinkles in the subjects' skin. The average percentage change in each of the parameters measured from the first day of the 28-day study to the last day of the 28-day study was calculated.

[2] = tested on: human subjects with dry skin and mild to moderate atopic dermatitis; details: 200 mg/day GLA orally; measurements at weeks 0, 4, 8, 12 and 16; cited from earlier work

| Molecule | Skin surface hydration, average percentage change over the course of the 28-day study ([1]; Corneometer CM 825) | Skin surface hydration, average percentage change over the course of the 28-day study ([1]; Corneometer CM 825, listed as HA) | Wrinkle depth, average percentage change over the course of the 28-day study ([1]; PRIMOS 3D) [%] | TEWL, average percentage change over the course of the 28-day study ([1]; Tewameter 300) [%] | Effect on TEWL [2] |
| --- | --- | --- | --- | --- | --- |
| hyaluronic acid | +10.6% | +10.6% | −18.8 | −3.9 |  |
| CCCCC/C=C\C/C=C\C/C=C\CCCCC(=O)O [GLA, all-cis-6,9,12-octadecatrienoic acid] |  |  |  |  | reduce TEWL |
